Laboratory results as given in patent US10328048B2, “Cafestol for treating diabetes” (Aarhus Universitet, priority 2014, dated 2019).
“Also recorded” adds a separate entry of the source.

Key:
[1] = tested on: Human skeletal muscle cells; test: Acute glucose uptake in human skeletal muscle cell line; assay type: cell-based; settings: 100 nM insulin, 15 minutes
Method: Human skeletal muscle cells were seeded in 24 wells, ([…] cells/well) containing 1 mL growth medium (Promocell, Heidelberg, Germany). Once 70-90% confluence was reached, the growth medium was replaced by 1 mL differentiation medium (Promocell, Heidelberg, Germany). This medium was changed every 2nd day for two weeks until multinucleated syncytia was visible in microscope. Cells were washed twice with PBS. 300 μL of an alternatively modified-Krebs Ringer Buffer (containing 0.1% BSA with 0.1 mM glucose, 1.5 μCi deoxy-d-glucose 2-[1,2-3H(M)] (Perkin Elmer, 2740 Skovlunde, Denmark) and 100 nM insulin was put in each well. Five types of solutions were prepared: one with […] cafestol or rosiglitazone (control), a second with a 10^−6 M cafestol, a third with a 10^−10 M cafestol, a fourth with a 10^−12 M cafestol, and a fifth with a 10^-8 M rosiglitazone. Cells were kept on ice while adding medium. After 15 minutes of incubation at 37° C., 5.0% CO2, cells were washed twice with the modified-Krebs Ringer Buffer supplemented with 0.1% BSA and 50 mM glucose, stopping the incubation and glucose uptake. Hereafter, 0.2 mL 0.1 M NaOH was added to each well for a 30 minute room temperature incubation. 0.1 mL was transferred from each well to a 24 well counting plate (Wallac Oy, Turku, Finland). After adding 0.9 mL Hisafe II scintillator (Perkin Elmer, 2740 Skovlunde, Denmark), plates were stored in the dark for 12 hours before counted using a Trilux Micro Beta Counter (Wallac Oy, Turku, Finland). “Counts per minute” is a direct measure of glucose uptake.

INS-1E cells [2] = test: Chronic (72 hours) insulin secretion from INS-1E cells; assay type: cell-based, rat; set-up: unit not given here
Method: INS-1E cells were seeded onto 24 well plates and incubated for 72 hours in RPMI 1640 supplemented with cafestol. After 72 hours the buffer was changed to a modified Krebs Ringer buffer and the cells were incubated for 60 min at low (3.3 mM) and high (16.7 mM) glucose. Hereafter the medium was removed for later insulin analysis using a sensitive rat insulin kit from Linco.

INS-1E cells [3] = test: as above; assay type: cell-based, rat; settings: low glucose level (FIG. 2)
[4] = tested on: isolated islets of Langerhans; test: Insulin secretion experiment with isolated islets of Langerhans from KKAy mice after 10 weeks intervention; assay type: in vivo
Method: (§1) The effects of cafestol were investigated in a 10 week dietary intervention study in a type 2 diabetic animal model. Five weeks old male KKAy mice were randomly assigned to either of three intervention groups (n=12 per group), i.e. 1) Control (no cafestol added), 2) supplementation with 0.382 mg/day of cafestol/kg mice, and 3) supplementation with 1.146 mg/day of cafestol/kg mice. The cafestol was added to food pellets daily. At the beginning of the study (week 0) fasting blood glucose, insulin and lipids (total cholesterol, LDL, HDL and triglycerides) were measured. Every 2nd week fasting blood glucose, body weight and food intake was measured. At the end of the intervention (week 10) fasting blood glucose, insulin, glucagon and lipids (total cholesterol, LDL-cholesterol, HDL-cholesterol) were measured. The pancreas was removed and treated with collagenase and subsequently, the effects on insulin secretory capacity was studied in isolated islets of Langerhans. Furthermore, gene expression levels of key regulatory genes in liver, fat and muscle tissues were measured using RT-PCR.

[5] = healthy ileostomy volunteers, cited from earlier work
KKAy mice = test: 10 week dietary intervention study in diabetic KKAy mice; assay type: in vivo; settings: 10 weeks; for Fasting plasma glucose compared to the control group: in food pellets
Method: as §1

INS-1E cells [6] = test: Acute insulin secretion from INS-1E cells; assay type: cell-based, rat; set-up: Insulin secretion, Mean: unit not given here; settings: for Insulin secretion, Mean: 16.7 mM glucose, 60 min
Method: INS-1E cells were seeded onto 24 well plates before incubation experiments. At the day of the experiment the buffer was changed to a modified Krebs-Ringer-buffer and the cells were preincubated in the same buffer for 60 min. […]

[7] = oral 1.5 mg/mouse, cited from earlier work

C[C@@]12CCc3occc3[C@H]1CC[C@@]13C[C@@H](CC[C@H]12)[C@@](O)(CO)C3 [Cafestol]
Glucose uptake, Counts per minute (± in SEM) ([1]; 10^−8 M): 157.2 ± 2.318 Counts per minute | Glucose uptake, Counts per minute (± in SEM) ([1]; 10^−8 M, listed as cafestol): significantly increased | Glucose uptake, Counts per minute (± in SEM) ([1]; 10^−10 M): 151.0 ± 2.104 Counts per minute | Glucose uptake, Counts per minute (± in SEM) ([1]; 10^−12 M): 146.3 ± 1.839 Counts per minute | Insulin secretion, Mean (INS-1E cells [2]; 3.3 mM glucose, 72 hours incubation with cafestol 10^−8 M): 0.7482 | Insulin secretion, Mean (INS-1E cells [2]; 3.3 mM glucose, 72 hours incubation with cafestol 10^−8 M, listed as cafestol): stimulatory effect | Insulin secretion, Mean (INS-1E cells [2]; 3.3 mM glucose, 72 hours incubation with cafestol 10^−10 M): 0.5853 | Insulin secretion, Mean (INS-1E cells [2]; 3.3 mM glucose, 72 hours incubation with cafestol 10^−10 M, listed as cafestol): neutral effect | Insulin secretion, Mean (INS-1E cells [2]; 3.3 mM glucose, 72 hours incubation with cafestol 10^−12 M): 0.4999 | Insulin secretion, Mean (INS-1E cells [2]; 3.3 mM glucose, 72 hours incubation with cafestol 10^−12 M, listed as cafestol): significantly decreased | Insulin secretion, Mean (INS-1E cells [2]; 16.7 mM glucose, 72 hours incubation with cafestol 10^−8 M): 1.661 | Insulin secretion, Mean (INS-1E cells [2]; 16.7 mM glucose, 72 hours incubation with cafestol 10^−8 M, listed as cafestol): significant increase | Insulin secretion, Mean (INS-1E cells [2]; 16.7 mM glucose, 72 hours incubation with cafestol 10^−10 M): 1.322 | Insulin secretion, Mean (INS-1E cells [2]; 16.7 mM glucose, 72 hours incubation with cafestol 10^−10 M, listed as cafestol): significant increase | Insulin secretion, Mean (INS-1E cells [2]; 16.7 mM glucose, 72 hours incubation with cafestol 10^−12 M): 0.9279 | Glucagonostatic effect (INS-1E cells [3]): significant glucagonostatic effect | Glucose sensitivity of islets (insulin secretion) compared to Control ([4]; after 10 weeks intervention with cafestol): more glucose sensitive | Insulin stimulation at low glucose concentration ([4]; islets after 10 weeks intervention, low glucose): not present | Absorbed from the gastrointestinal tract ([5]; estimated from recovery in ileostomy effluent): approximately 70% | Dose recovered in urine [5]: approximately 1% | Fasting plasma glucagon compared to Control (KKAy mice; High cafestol group 1.146 mg/day/kg): significant decreased | Fasting plasma glucose compared to the control group (KKAy mice; high concentration 1.146 mg/day/kg): significantly decreased; also recorded: decrease fasting plasma glucose significantly | HOMA-IR compared to control group (KKAy mice; high dose of cafestol, p=0.03): significantly reduced; also recorded: significant decrease | Fasting plasma glucose compared to the control group (KKAy mice; low concentration 0.382 mg/day/kg): significantly decreased; also recorded: decrease fasting plasma glucose significantly | HOMA-IR compared to control group (KKAy mice; low dose of cafestol): tendency to be reduced | Insulin secretion, Mean (INS-1E cells [6]; cafestol 10^−6 M): 0.9013 | Insulin secretion, Mean (INS-1E cells [6]; cafestol 10^−8 M): 0.8682 | Insulin secretion, Mean (INS-1E cells [6]; cafestol 10^−10 M): 0.8715 | Insulin secretion, Mean (INS-1E cells [6]; cafestol 10^−12 M): 0.8261 | Insulin secretion (change vs glucose alone) (INS-1E cells [6]; high glucose, concentrations ranging from 10^−10 M to 10^−6 M): significant increase | Parent compound as share of activity present in portal blood ([7]; 50 min after administration): 70% | Parent compound as share of total radioactivity present in portal blood ([7]; two minutes after dosing): 50%
